The term ED50 denotes the dose that gives a 50% effect, or the effect in half of the subjects.

In the experiment the test system is Mus musculus. The experiment in a line: Effective dose against Trypanosoma brucei S427/118 infection in mice, administered ip after 24 hr. The format is functional.

Each structure is given as a SMILES string.

Regarding `N=C(N)c1ccc(CCCCCCCc2ccc(C(=N)N)cc2)cc1`, the 50% effect level (ED50) was put at a dose of 7.3 mg/kg.
Compound `N=C(N)c1ccc(OCCCCCOc2ccc(C(=N)N)cc2)cc1` [PENTAMIDINE] registered an ED50 of 0.38 mg/kg.

Values taken from ChEMBL document CHEMBL1129229, “Synthesis and trypanocidal activity of the bis-carba analogue of pentamidine” (1996).
